The test system of one test is HCT-116 colon carcinoma. Description: Inhibition of Cell Proliferation (14C-thymidine incorporation), HCT-116. The following applies: Homo sapiens, HCT-116 cell line. Format: cell-based. Put shortly: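 After seeding at 3000-8000 cells per well and a 24 h rest, compound is added and cells incubate 24 h; radiolabelled thymidine (0.2 uCi/well) then goes in for another 24 h. Washed wells are counted for incorporated 14C, relative to DMSO-only wells.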

In test [1] the target is T1, Casein Kinase 1 (CK1 delta isoform) (Rattus norvegicus, UniProt Q06486).
T1 construct: a truncation at amino acid 318 of the C-terminal portion of the rat CK1 delta isoform; purchased New England Biolabs 6030; host or cells: E. coli
T1 sequence (Q06486 1-317): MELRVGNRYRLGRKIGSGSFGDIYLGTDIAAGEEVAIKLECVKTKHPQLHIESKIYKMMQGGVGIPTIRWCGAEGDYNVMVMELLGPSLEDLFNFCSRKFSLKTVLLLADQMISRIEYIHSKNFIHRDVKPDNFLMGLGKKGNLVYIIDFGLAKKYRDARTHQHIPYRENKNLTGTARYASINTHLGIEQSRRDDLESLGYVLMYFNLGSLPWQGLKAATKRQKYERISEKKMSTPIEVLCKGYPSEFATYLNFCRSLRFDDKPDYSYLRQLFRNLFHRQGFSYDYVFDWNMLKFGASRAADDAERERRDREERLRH
Description: Kinase Selectivity Assay Casein Kinase 1. Format: biochemical. The following applies: Tables 2a-2k, read-out: Caseine Kinase 1 IC50. Put shortly: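 Reactions ran one hour at 30° C in 1% DMSO with enzyme diluted in 50 mM Tris-HCl pH 8.0, 0.1% BSA. Scintillation counting read ^33P incorporated into immobilized biotinylated peptide.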

As for `Cc1cc(C)c(C(=O)n2nc(Nc3ccc(S(=O)(=O)Nc4ccccn4)cc3)nc2N)s1` [Cpd 120], the IC50 with HCT-116 colon carcinoma was 334 nM; in test [1], over 10 µM.

Regarding `Cc1ccc(F)c(C(=O)n2nc(N)nc2Nc2ccc(S(N)(=O)=O)cc2)c1F` [Cpd 123, 4-[[3-amino-1-(2,6-difluoro-3-methylbenzoyl)-1H-1,2,4-triazol-5-yl]amino]-benzenesulfonamide], the IC50 was 4140 nM with HCT-116 colon carcinoma and over 100 µM in test [1].

In general, IC50 refers to the concentration at which inhibition is half-maximal.

For the origin of these results see US6924302B2, “Substituted triazole diamine derivatives as kinase inhibitors” (Ortho McNeil Pharmaceutical, Inc., priority 2000, dated 2005).
